Legend:
[1] = biological target: T1, WASp (Homo sapiens, UniProt P42768); assay: WASp ubiquitylation in platelets (immunoprecipitation, anti-ubiquitin blot); type: cell-based; conditions: 15 min pre-incubation, vs activated untreated cells
T1 construct: endogenous in cells; host or cells: primary human platelets from healthy donors
T1 sequence (P42768 1-502): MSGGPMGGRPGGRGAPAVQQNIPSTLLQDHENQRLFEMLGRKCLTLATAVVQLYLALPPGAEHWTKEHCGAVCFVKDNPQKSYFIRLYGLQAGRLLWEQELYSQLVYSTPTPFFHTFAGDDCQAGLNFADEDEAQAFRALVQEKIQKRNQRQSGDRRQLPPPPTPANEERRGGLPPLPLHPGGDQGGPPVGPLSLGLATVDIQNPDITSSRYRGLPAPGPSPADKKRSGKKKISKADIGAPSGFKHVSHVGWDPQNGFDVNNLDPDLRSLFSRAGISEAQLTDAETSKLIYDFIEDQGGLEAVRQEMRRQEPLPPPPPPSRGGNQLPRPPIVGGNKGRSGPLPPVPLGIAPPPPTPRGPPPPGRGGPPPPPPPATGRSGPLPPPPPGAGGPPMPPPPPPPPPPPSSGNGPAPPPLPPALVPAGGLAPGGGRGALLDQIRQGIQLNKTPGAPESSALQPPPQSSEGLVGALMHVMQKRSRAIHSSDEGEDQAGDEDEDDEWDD
Experimental: FIGS. 12A and 12B. show freshly-isolated platelets that were either stimulated (+) with TRAP-6 (10 μM) or unstimulated (−) and pre-incubated at 37° C. for 15 min with either DMSO or the indicated WASp-binding SMCs (FIG. 12A—SMC #6; FIG. 12B—SMC #33), followed by lysis. Lysates were subjected to immunoprecipitation with anti-WASp antibody and were analyzed by western blotting with anti-ubiquitin (Ub) and with anti-WASp as precipitation control. Ubiquitylated WASp appears as a smear of bands above the molecular weight (MW) of 65 kDa with a prominent band at ˜81 kDa. Blots are representative of three independent experiments.
Immunoprecipitations and western blotting analysis were performed as previously described (Reicher et al, 2012). Briefly, platelets (2×10^8 cells per sample) were lysed by the addition of an equal volume of 2× lysis buffer (30 mM HEPES pH7.4, 300 mM NaCl, 2 mM phenylmethyl sulfonyl fluoride (PMSF), 2 mM sodium orthovanadate, 2% Triton X-100 and complete protease inhibitor tablets (Roche)). MEG-01 cells (2×10^7 cells per sample) were lysed in 1.25× lysis buffer. Proteasome activity was blocked by addition of MG132 (AdooQ) to platelets and Meg-01 cell medium at final concentration of 10 μM, for 1 h before the cells were harvested. […]

[2] = tested on: YFP-WASp R86C or Y107C; assay: WASp expression in WASp knockout Jurkat lines expressing only YFP-WASp R86C or Y107C (western blot); type: cell-based, human; conditions: WAS−/−/WASp R86C or Y107C, vs control-treated cells
Experimental: The cells were then co-stimulated with anti-CD3 and anti-CD28 and analyzed by western blot as described in FIG. 14B. […] Relative protein expression was determined by densitometric analysis and is presented below the corresponding lanes.
CRISPR/CAS9 knockdown of endogenous WASp in T-cells was conducted according to published protocol (Ran F A et al, 2013). The vector pSpCas9 (BB)-2A-GFP (PX458) was purchased from Addgene, plasmid #48138. RNA guides were designed to target an intron/exon junction in the WAS gene, in order to eliminate gene silencing of exogenous YFP-WASp. RNA guide sequences aimed for WASp locus were constructed using the online CRISPR design tool algorithm (Zhang Lab) and NCBI gene. The guides which received the highest score were selected to be subcloned into the pSpCas9 (BB)-2A-GFP (PX458) vector.
The sequence present in WASp exons is bold. The sequence that is complementary to WASp intron (chromosome X, GRCh38.p7 nucleotides 1883-1890) is underlined. Knockout of endogenous WASp was conducted in Jurkat cells alone or in Jurkat cells stably expressing YFP-WASp containing the following mutations, R86C (as denoted by SEQ ID NO. 13 and encoded by SEQ ID NO. 14) or Y107C (as denoted by SEQ ID NO. 15 and encoded by SEQ ID NO. 16). […]
Cells exclusively expressing the YFP-WASp mutants were incubated with SMC #34 or solvent, stimulated and analyzed by western blot.

[3] = tested on: WAS−/−/WASp R86C Jurkat T-cells; assay: Lymphocyte migration on ICAM-1/SDF-1α, WAS−/−/WASp R86C cells; type: cell-based, human
Experimental: WASp knockout Jurkat T-cell lines that express only exogenous YFP-WASp R86C (WAS^−/−/WASp R86C) or Y107C (WAS^−/−/WASp Y107C) were pretreated with SMC #34 in comparison to cells treated with the control. Cells that completely lack WASp expression (WAS^−/−) were also treated with the control. Cellular migration was tracked over a 20-min period on ICAM-1/SDF-1α-coated cover glasses, as described in Experimental procedures.
Approximately 1×10^5 lymphocytes were seeded over chambered coverslips (LabTek) pre-coated with 6 μg/ml ICAM-1 and 2 μg/ml SDF-1α. Cells were incubated at 37° C., 5% CO2 and DIC images were acquired with the Zeiss Observer Z1 inverted microscope every 5 s for 20 min under a 20× objective lens using Zen software. The random movement (Displacement and velocity) of the cells was automatically tracked and analyzed using TrackMate plugin of ImageJ software. An individual trace was assigned to each of the analyzed cells.

SMILES | WASp ubiquitylation in active platelets [1] | WASp expression in cells exclusively expressing the YFP-WASp mutants [2] | migration ([3]; WAS−/−/WASp R86C cells, vs control) | mean cell displacement ([3]; WAS−/−/WASp R86C, 20 min, mean ± SE)
CC(=O)N[C@H]1C[C@@H](c2ccc3c(c2)nnn3C)O[C@@H](c2ccc(Cl)cc2)C1 [SMC #6, N-[(2R,4R,6S)-2-(4-chlorophenyl)-6-(1-methylbenzotriazol-5-yl)oxan-4-yl]acetamide] | considerably decreased |  |  | 
CC1CCCC(C)N1C(=O)CSc1nnc(COc2cccc3cccnc23)o1 (centres unmarked) [SMC #34, 1-(2,6-dimethylpiperidin-1-yl)-2-[[5-(quinolin-8-yloxymethyl)-1,3,4-oxadiazol-2-yl]sulfanyl]ethanone] |  | increased WASp expression | significantly increased | 53.65±4.88
Cc1ccccc1N(CC(=O)NCc1ccccc1)C(=O)CCC(=O)Nc1nccs1 [SMC #33, N′-[2-(benzylamino)-2-oxoethyl]-N′-(2-methylphenyl)-N-(1,3-thiazol-2-yl)butanediamide] | considerably decreased |  |  | 

— patent US12150940B2, “WASp-protecting small molecules, compositions, methods and uses thereof in the treatment of innate and acquired immune-related disorders or conditions” (BAR ILAN UNIVERSITY, priority 2016, dated 2024)
